Measurements as given in ChEMBL document CHEMBL5365420, “Kinetics, Thermodynamics, and Structural Effects of Quinoline-2-Carboxylates, Zinc-Binding Inhibitors of New Delhi Metallo-β-lactamase-1 Re-sensitizing Multidrug-Resistant Bacteria for Carbapenems” (J Med Chem, 2023).

Assays:
[1] = system: Escherichia coli; test: Antibacterial activity against clinical isolate Escherichia coli ST1012/10 expressing blaNDM-1 co-expressing blaTEM-1/blaCTX-M-15/blaOXA-1 and blaOXA-2 assessed as meropenem MIC at 80 uM measured after 20 hrs by broth microdilution assay (reference value: 21.3 mg/L); type: functional
[2] = system: Acinetobacter baumannii; test: Antibacterial activity against clinical isolate Acinetobacter baumannii IC 19/09 expressing blaNDM-1 co-expressing blaOXA-64 assessed as meropenem MIC at 80 uM measured after 20 hrs by broth microdilution assay (reference value: 21.3 mg/L); type: functional
[3] = Inhibition of VIM-2 (unknown origin) incubated for 15 mins by absorbance based microplate reader analysis; set-up: species or system Bacteria
[4] = system: Klebsiella pneumoniae; test: Antibacterial activity against clinical isolate Klebsiella pneumoniae ST23213/19 expressing blaNDM-1 co-expressing blaOXA-48/blaSHV-11/blaCTX-M-15 and blaOXA-1 assessed as meropenem MIC at 40 uM measured after 20 hrs by broth microdilution assay (reference value: 10.65 mg/L); type: functional
[5] = system: Escherichia coli; test: Antibacterial activity against clinical isolate Escherichia coli K12 J53-ST10 684/18 expressing blaNDM-1 co-expressing blaCMY-2 and blaOXA-10 assessed as meropenem MIC at 40 uM measured after 20 hrs by broth microdilution assay (reference value: 10.65 mg/L); type: functional
[6] = system: Acinetobacter baumannii; test: Antibacterial activity against clinical isolate Acinetobacter baumannii IC 19/09 expressing blaNDM-1 co-expressing blaOXA-64 assessed as meropenem MIC at 40 uM measured after 20 hrs by broth microdilution assay (reference value: 10.65 mg/L); type: functional
[7] = system: Klebsiella pneumoniae; test: Antibacterial activity against clinical isolate Klebsiella pneumoniae ST23213/19 expressing blaNDM-1 co-expressing blaOXA-48/blaSHV-11/blaCTX-M-15 and blaOXA-1 assessed as meropenem MIC at 80 uM measured after 20 hrs by broth microdilution assay (reference value: 21.3 mg/L); type: functional
[8] = system: Klebsiella pneumoniae; test: Antibacterial activity against clinical isolate Klebsiella pneumoniae 50/11 expressing blaNDM-1 co-expressing blaTEM-1/blaSHV-28/blaTEM-1/blaCTX-M-15 and blaOXA-1 assessed as meropenem MIC at 80 uM measured after 20 hrs by broth microdilution assay (reference value: 21.3 mg/L); type: functional
[9] = system: Escherichia coli; test: Antibacterial activity against clinical isolate Escherichia coli K12 J53-ST10 696/17 expressing blaNDM-1 co-expressing blaCMY-4 assessed as meropenem MIC at 80 uM measured after 20 hrs by broth microdilution assay (reference value: 21.3 mg/L); type: functional
[10] = target: T1, 72 kDa type IV collagenase (Homo sapiens, UniProt P08253); test: Binding affinity to human recombinant MMP-2 CD assessed as inhibition constant using OMNIMMP as substrate incubated for 30 mins by fluorescence based analysis
Target sequence in this assay (P08253 whole entry): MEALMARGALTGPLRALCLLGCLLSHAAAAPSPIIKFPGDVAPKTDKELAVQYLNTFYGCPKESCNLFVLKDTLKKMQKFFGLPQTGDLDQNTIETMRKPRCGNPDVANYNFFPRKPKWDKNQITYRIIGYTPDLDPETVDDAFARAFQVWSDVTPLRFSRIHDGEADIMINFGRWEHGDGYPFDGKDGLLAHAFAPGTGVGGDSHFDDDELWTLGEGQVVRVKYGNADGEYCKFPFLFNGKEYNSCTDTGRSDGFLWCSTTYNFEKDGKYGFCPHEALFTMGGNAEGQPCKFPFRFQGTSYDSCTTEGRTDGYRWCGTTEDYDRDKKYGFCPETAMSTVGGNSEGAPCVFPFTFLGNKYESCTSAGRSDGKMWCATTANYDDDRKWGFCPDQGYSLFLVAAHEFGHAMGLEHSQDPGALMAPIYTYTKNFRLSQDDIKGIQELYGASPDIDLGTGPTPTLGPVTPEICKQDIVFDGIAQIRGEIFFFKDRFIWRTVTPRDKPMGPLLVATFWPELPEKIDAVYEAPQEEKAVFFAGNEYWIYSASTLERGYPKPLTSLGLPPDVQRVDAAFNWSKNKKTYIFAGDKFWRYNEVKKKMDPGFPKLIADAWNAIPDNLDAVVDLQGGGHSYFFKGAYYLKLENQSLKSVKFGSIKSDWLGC

[11] = target: T1, 72 kDa type IV collagenase; test: Inhibition of human recombinant MMP-2 CD at 10 uM using OMNIMMP as substrate incubated for 30 mins by fluorescence based analysis relative to control
Target sequence in this assay (P08253 110-660 limits assumed): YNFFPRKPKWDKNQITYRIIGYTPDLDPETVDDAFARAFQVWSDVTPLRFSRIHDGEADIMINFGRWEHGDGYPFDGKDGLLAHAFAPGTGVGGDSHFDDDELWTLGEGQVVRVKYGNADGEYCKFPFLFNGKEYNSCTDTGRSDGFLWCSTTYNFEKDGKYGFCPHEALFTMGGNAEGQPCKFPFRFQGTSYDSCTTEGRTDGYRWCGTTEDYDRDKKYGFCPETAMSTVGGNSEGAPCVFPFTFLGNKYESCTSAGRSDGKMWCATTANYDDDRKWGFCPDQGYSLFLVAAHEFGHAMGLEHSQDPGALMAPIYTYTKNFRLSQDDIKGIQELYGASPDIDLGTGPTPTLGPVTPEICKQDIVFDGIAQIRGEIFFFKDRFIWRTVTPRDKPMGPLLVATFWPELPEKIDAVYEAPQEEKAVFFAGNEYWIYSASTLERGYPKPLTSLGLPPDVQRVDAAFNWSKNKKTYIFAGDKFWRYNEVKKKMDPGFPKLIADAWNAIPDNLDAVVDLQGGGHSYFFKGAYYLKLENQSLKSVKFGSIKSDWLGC

[12] = system: Escherichia coli; test: Antibacterial activity against clinical isolate Escherichia coli 371/12 expressing blaNDM-7 co-expressing blaCTX-M-15 and blaOXA-1 assessed as meropenem MIC at 80 uM measured after 20 hrs by broth microdilution assay (reference value: 21.3 mg/L); type: functional
[13] = Selectivity ratio of Ki for human recombinant MMP-2 CD to Ki for C-terminal 6His-tagged full length NDM-1 (unknown origin)
[14] = system: Escherichia coli; test: Antibacterial activity against clinical isolate Escherichia coli K12 J53-ST10 618/15 expressing blaNDM-1 assessed as meropenem MIC at 80 uM measured after 20 hrs by broth microdilution assay (reference value: 21.3 mg/L); type: functional
[15] = system: Klebsiella pneumoniae; test: Antibacterial activity against clinical isolate Klebsiella pneumoniae 62/07 expressing blaVIM-19 co-expressing blaSHV-1/blaCTX-M-14 and blaCMY-4 assessed as meropenem MIC at 80 uM measured after 20 hrs by broth microdilution assay (reference value: 21.3 mg/L); type: functional
[16] = system: Escherichia coli; test: Antibacterial activity against clinical isolate Escherichia coli K12 J53-ST10 696/17 expressing blaNDM-1 co-expressing blaCMY-4 assessed as meropenem MIC at 40 uM measured after 20 hrs by broth microdilution assay (reference value: 10.65 mg/L); type: functional
[17] = Inhibition of GIM1 (unknown origin) incubated for 15 mins by absorbance based microplate reader analysis; set-up: species or system Bacteria
[18] = system: Escherichia coli; test: Antibacterial activity against clinical isolate Escherichia coli K12 J53-ST10 684/18 expressing blaNDM-1 co-expressing blaCMY-2 and blaOXA-10 assessed as meropenem MIC at 80 uM measured after 20 hrs by broth microdilution assay (reference value: 21.3 mg/L); type: functional
[19] = system: Klebsiella pneumoniae; test: Antibacterial activity against clinical isolate Klebsiella pneumoniae 50/11 expressing blaNDM-1 co-expressing blaTEM-1/blaSHV-28/blaTEM-1/blaCTX-M-15 and blaOXA-1 assessed as meropenem MIC at 40 uM measured after 20 hrs by broth microdilution assay (reference value: 10.65 mg/L); type: functional
[20] = system: Klebsiella pneumoniae; test: Antibacterial activity against clinical isolate Klebsiella pneumoniae ST1493/10 expressing blaNDM-1 co-expressing blaCMY-2like/blaTEM-1/blaCTX-M-15/blaSHV-28/blaOXA-1 and blaOXA-9 assessed as meropenem MIC at 40 uM measured after 20 hrs by broth microdilution assay (reference value: 10.65 mg/L); type: functional
[21] = system: Klebsiella pneumoniae; test: Antibacterial activity against clinical isolate Klebsiella pneumoniae 50/20 expressing blaNDM-5 co-expressing blaTEM-1 and blaSHV-1 assessed as meropenem MIC at 40 uM measured after 20 hrs by broth microdilution assay (reference value: 10.65 mg/L); type: functional
[22] = Inhibition of IMP-1 (unknown origin) expressed in Escherichia coli BL21-DE3 incubated for 15 mins by absorbance based microplate reader analysis; set-up: species or system Bacteria
[23] = system: Escherichia coli; test: Antibacterial activity against clinical isolate Escherichia coli ST1012/10 expressing blaNDM-1 co-expressing blaTEM-1/blaCTX-M-15/blaOXA-1 and blaOXA-2 assessed as meropenem MIC at 40 uM measured after 20 hrs by broth microdilution assay (reference value: 10.65 mg/L); type: functional
[24] = system: Escherichia coli; test: Antibacterial activity against clinical isolate Escherichia coli K12 J53-ST10 699/15 expressing blaNDM-1 assessed as meropenem MIC at 40 uM measured after 20 hrs by broth microdilution assay (reference value: 10.65 mg/L); type: functional
[25] = system: Escherichia coli; test: Antibacterial activity against clinical isolate Escherichia coli 371/12 expressing blaNDM-7 co-expressing blaCTX-M-15 and blaOXA-1 assessed as meropenem MIC at 40 uM measured after 20 hrs by broth microdilution assay (reference value: 10.65 mg/L); type: functional
[26] = system: Escherichia coli; test: Antibacterial activity against clinical isolate Escherichia coli K12 J53-ST10 699/15 expressing blaNDM-1 assessed as meropenem MIC at 80 uM measured after 20 hrs by broth microdilution assay (reference value: 21.3 mg/L); type: functional
[27] = target: Carbonic anhydrase 2 (Homo sapiens) (UniProt P00918); test: Inhibition of human CA2 at 10 uM using pNPA as substrate preincubated for 15 mins followed by substrate by absorbance based analysis relative to control
[28] = target: Histone deacetylase 1 (Homo sapiens) (UniProt Q13547); test: Inhibition of C-terminal 6His/FLAG-tagged human recombinant full-length HDAC1 (1 to 482(end) residues) at 10 uM using Boc-Lys-(Ac)-AMC as substrate incubated for 10 mins followed by substrate addition measured after 1 hr by fluorescence based analysis relative to control; settings: time 70.0 min
[29] = system: Klebsiella pneumoniae; test: Antibacterial activity against clinical isolate Klebsiella pneumoniae 50/20 expressing blaNDM-5 co-expressing blaTEM-1 and blaSHV-1 assessed as meropenem MIC at 80 uM measured after 20 hrs by broth microdilution assay (reference value: 21.3 mg/L); type: functional
[30] = target: Metallo-beta-lactamase type 2 (Bacteria, UniProt C7C422)
Description: Inhibition of C-terminal 6His-tagged full length NDM-1 (unknown origin) expressed in Escherichia coli BL21-DE3 using nitrocefin as substrate incubated for 15 mins followed by substrate addition by absorbance based microplate reader analysis

[31] = system: Klebsiella pneumoniae; test: Antibacterial activity against clinical isolate Klebsiella pneumoniae ST1493/10 expressing blaNDM-1 co-expressing blaCMY-2like/blaTEM-1/blaCTX-M-15/blaSHV-28/blaOXA-1 and blaOXA-9 assessed as meropenem MIC at 80 uM measured after 20 hrs by broth microdilution assay (reference value: 21.3 mg/L); type: functional
[32] = system: Klebsiella pneumoniae; test: Antibacterial activity against clinical isolate Klebsiella pneumoniae 62/07 expressing blaVIM-19 co-expressing blaSHV-1/blaCTX-M-14 and blaCMY-4 assessed as meropenem MIC at 40 uM measured after 20 hrs by broth microdilution assay (reference value: 10.65 mg/L); type: functional
[33] = system: Escherichia coli; test: Antibacterial activity against clinical isolate Escherichia coli K12 J53-ST10 618/15 expressing blaNDM-1 assessed as meropenem MIC at 40 uM measured after 20 hrs by broth microdilution assay (reference value: 10.65 mg/L); type: functional

Sequence of Histone deacetylase 1 (Homo sapiens) (Q13547 whole entry): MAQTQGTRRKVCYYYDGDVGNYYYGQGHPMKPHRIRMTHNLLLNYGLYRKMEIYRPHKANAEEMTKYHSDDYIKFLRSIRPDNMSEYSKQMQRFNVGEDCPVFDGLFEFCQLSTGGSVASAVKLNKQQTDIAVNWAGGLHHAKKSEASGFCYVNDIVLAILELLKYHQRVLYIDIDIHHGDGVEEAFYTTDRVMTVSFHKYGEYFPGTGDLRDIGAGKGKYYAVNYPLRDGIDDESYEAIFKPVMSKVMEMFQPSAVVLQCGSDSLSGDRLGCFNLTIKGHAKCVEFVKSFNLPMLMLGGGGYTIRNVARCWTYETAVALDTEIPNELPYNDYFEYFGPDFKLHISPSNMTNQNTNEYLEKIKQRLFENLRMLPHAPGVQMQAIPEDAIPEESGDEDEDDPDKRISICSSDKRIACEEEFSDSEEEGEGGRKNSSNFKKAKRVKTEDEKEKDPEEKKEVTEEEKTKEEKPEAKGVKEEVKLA
Sequence of Metallo-beta-lactamase type 2 (C7C422 whole entry): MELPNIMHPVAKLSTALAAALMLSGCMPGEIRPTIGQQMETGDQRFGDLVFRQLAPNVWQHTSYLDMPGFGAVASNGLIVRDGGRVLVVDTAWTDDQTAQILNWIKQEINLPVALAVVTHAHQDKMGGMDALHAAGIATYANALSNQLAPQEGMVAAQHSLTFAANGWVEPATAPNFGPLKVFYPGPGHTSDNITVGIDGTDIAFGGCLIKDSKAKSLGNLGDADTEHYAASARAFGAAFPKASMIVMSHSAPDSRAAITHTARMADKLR

MIC [1]: ≤ 0.125 µg/mL | MIC [2]: 2 µg/mL | IC50 [3]: 0.79 µM | MIC [4]: 16 µg/mL | MIC [5]: ≤ 0.125 µg/mL | MIC [6]: 4 µg/mL | MIC [7]: 16 µg/mL | MIC [8]: ≤ 0.125 µg/mL | MIC [9]: ≤ 0.125 µg/mL | Ki [10]: 4.08 µM | inhibition [11]: > 90% | MIC [12]: 0.25 µg/mL | Ratio Ki [13]: 5 | MIC [14]: ≤ 0.125 µg/mL | MIC [15]: 0.5 µg/mL | MIC [16]: ≤ 0.125 µg/mL | IC50 [17]: 50.1 µM | MIC [18]: ≤ 0.125 µg/mL | MIC [19]: ≤ 0.125 µg/mL | MIC [20]: 4 µg/mL | MIC [21]: ≤ 0.125 µg/mL | IC50 [22]: 7.27 µM | MIC [23]: ≤ 0.125 µg/mL | MIC [24]: ≤ 0.125 µg/mL | MIC [25]: 2 µg/mL | MIC [26]: ≤ 0.125 µg/mL | inhibition [27]: < 5% | inhibition [28]: < 5% | MIC [29]: ≤ 0.125 µg/mL | IC50 [30]: 1.64 µM | MIC [31]: 2 µg/mL | MIC [32]: 1 µg/mL | MIC [33]: ≤ 0.125 µg/mL
Structure (SMILES): CS(=O)(=O)Nc1cccc2ccc(C(=O)O)nc12
